pEC50, pIC50: −log10 of the molar value.
Legend:
[1] = tested on: Xenograft A549; test: Example 2: Xenograft A549 mice, tumor volume; assay type: in vivo
Procedure: Protocol: Five groups of Xenograft A549 mice were treated and tumor volume tracked for twenty-two days. Group 01 was administered 0.9% Saline, 0 mg/kg cisplatin, Corn Oil, and 0 mg/kg 2-[3-[(3R)-3-[[2-chloro-3-(trifluoromethyl)phenyl]methyl-(2,2-diphenylethyl)amino]butoxy]phenyl]acetic acid; Group 02 was administered 2 mg/kg Cisplatin, Corn Oil, and 0 mg/kg 2-[3-[(3R)-3-[[2-chloro-3-(trifluoromethyl)phenyl]methyl-(2,2-diphenylethyl)amino]butoxy]phenyl]acetic acid; Group 03 was administered 0.9% Saline, 0 mg/kg cisplatin, and 50 mg/kg 2-[3-[(3R)-3-[[2-chloro-3-(trifluoromethyl)phenyl]methyl-(2,2-diphenylethyl)amino]butoxy]phenyl]acetic acid; Group 04 was administered 2 mg/kg cisplatin and 50 mg/kg 2-[3-[(3R)-3-[[2-chloro-3-(trifluoromethyl)phenyl]methyl-(2,2-diphenylethyl)amino]butoxy]phenyl]acetic acid twice per day daily for the entire treatment period; and Group 05 was administered 2 mg/kg cisplatin and 50 mg/kg 2-[3-[(3R)-3-[[2-chloro-3-(trifluoromethyl)phenyl]methyl-(2,2-diphenylethyl)amino]butoxy]phenyl]acetic acid twice per day for five continuous days followed by two days without for the entire treatment period.

[2] = tested on: TNBC metastasis; test: mouse model of TNBC metastasis; conditions: in vivo
[3] = molecular target: 2E1 (Homo sapiens, UniProt P05181); test: in vitro CYP450 inhibition; assay type: in vitro ADME
Sequence of 2E1 (P05181 whole entry): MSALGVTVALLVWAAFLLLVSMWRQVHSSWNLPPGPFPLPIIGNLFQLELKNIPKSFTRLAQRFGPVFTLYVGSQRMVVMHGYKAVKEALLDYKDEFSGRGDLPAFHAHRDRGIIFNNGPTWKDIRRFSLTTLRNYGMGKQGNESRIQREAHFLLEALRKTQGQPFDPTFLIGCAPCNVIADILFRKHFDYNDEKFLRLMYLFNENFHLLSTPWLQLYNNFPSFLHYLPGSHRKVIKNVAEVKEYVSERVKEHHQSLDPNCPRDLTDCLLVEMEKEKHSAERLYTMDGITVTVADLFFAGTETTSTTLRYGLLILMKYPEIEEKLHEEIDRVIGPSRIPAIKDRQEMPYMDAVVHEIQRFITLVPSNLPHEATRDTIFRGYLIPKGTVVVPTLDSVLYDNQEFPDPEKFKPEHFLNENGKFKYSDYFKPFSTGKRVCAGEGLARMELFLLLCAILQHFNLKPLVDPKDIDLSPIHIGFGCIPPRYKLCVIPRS

[4] = tested on: MDSCs; test: reduction of MDSCs in circulation and in tumors; assay type: in vivo
[5] = molecular target: OATP1B3 (Homo sapiens, UniProt Q9NPD5); test: uptake transporter inhibition in vitro; assay type: in vitro ADME
Sequence of OATP1B3 (Q9NPD5 whole entry): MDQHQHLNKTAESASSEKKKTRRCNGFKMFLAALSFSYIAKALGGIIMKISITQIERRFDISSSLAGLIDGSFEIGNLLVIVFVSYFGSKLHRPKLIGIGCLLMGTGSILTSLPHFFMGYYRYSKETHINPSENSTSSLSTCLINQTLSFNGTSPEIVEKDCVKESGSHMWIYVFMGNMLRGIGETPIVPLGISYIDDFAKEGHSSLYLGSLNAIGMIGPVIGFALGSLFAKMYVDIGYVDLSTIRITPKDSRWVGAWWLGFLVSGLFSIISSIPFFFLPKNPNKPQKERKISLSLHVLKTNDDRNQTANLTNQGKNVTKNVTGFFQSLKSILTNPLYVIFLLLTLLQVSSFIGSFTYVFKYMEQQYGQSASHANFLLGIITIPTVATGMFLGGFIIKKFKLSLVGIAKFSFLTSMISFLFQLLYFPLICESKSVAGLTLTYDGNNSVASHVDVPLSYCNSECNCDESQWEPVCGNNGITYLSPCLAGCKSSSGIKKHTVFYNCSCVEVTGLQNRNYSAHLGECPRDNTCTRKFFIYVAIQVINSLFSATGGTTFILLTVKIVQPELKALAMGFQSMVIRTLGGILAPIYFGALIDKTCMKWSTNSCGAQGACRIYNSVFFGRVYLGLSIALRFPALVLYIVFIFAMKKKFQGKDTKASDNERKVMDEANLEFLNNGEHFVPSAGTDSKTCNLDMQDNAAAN

[6] = molecular target: human ether-n-go-go-related gene (hERG) channel (Homo sapiens, UniProt Q12809); test: in vitro hERG assay; assay type: cell-based
Sequence of human ether-n-go-go-related gene (hERG) channel (Q12809 whole entry): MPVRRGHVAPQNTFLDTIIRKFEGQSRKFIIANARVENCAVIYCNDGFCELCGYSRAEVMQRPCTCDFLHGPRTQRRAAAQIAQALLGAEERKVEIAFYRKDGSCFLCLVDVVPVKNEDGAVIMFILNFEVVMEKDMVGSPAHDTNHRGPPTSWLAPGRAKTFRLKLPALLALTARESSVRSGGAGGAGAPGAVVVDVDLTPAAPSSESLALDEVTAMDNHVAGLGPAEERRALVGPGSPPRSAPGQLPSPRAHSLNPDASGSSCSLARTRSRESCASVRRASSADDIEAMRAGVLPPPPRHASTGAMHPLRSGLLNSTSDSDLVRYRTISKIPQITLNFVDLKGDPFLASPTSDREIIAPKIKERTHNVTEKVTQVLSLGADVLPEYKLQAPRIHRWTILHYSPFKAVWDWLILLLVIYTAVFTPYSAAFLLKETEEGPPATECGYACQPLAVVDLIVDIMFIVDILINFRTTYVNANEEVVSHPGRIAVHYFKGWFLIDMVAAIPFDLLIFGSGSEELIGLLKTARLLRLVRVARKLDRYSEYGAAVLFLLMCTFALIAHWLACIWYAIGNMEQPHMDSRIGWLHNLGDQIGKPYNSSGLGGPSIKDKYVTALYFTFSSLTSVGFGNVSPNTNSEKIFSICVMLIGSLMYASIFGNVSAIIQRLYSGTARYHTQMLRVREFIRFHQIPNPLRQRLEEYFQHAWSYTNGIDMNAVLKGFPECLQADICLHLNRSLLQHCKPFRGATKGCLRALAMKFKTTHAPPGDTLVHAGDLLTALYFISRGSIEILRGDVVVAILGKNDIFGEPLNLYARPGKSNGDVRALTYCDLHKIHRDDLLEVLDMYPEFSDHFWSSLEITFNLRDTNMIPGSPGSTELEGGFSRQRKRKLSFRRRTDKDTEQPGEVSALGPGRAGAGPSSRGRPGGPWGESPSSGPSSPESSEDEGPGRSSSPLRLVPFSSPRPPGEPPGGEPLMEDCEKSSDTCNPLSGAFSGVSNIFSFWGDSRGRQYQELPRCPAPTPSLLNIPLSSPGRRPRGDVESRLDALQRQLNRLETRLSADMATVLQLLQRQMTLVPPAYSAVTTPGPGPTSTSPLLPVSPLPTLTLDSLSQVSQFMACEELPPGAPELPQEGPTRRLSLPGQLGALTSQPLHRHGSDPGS

[7] = tested on: CYP2B6; test: CYP induction in primary cultures of cryopreserved hepatocytes; assay type: in vitro ADME
[8] = molecular target: CYP2C9 (Homo sapiens, UniProt P11712); test: in vitro CYP metabolism; assay type: in vitro ADME
Sequence of CYP2C9 (P11712 whole entry): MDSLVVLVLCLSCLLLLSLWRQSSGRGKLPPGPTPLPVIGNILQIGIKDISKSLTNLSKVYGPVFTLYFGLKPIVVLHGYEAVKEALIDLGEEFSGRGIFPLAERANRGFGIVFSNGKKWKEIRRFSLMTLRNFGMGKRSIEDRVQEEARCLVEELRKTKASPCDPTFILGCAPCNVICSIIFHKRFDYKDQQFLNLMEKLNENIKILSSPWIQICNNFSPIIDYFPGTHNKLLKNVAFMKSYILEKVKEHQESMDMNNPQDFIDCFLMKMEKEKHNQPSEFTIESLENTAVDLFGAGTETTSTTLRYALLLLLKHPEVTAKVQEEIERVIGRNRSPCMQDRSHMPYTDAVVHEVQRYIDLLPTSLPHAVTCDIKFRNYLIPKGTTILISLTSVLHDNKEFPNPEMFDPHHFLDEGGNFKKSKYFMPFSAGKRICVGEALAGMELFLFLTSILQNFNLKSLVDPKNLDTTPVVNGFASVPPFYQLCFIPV

[9] = molecular target: CYP2C19 (Homo sapiens, UniProt P33261); test: in vitro CYP metabolism; assay type: in vitro ADME
[10] = molecular target: CYP2C8 (Homo sapiens, UniProt P10632); test: in vitro CYP450 inhibition; assay type: in vitro ADME; conditions: read-out: 50% inhibitory concentration [IC50] CYP2C8
Sequence of CYP2C8 (P10632 whole entry): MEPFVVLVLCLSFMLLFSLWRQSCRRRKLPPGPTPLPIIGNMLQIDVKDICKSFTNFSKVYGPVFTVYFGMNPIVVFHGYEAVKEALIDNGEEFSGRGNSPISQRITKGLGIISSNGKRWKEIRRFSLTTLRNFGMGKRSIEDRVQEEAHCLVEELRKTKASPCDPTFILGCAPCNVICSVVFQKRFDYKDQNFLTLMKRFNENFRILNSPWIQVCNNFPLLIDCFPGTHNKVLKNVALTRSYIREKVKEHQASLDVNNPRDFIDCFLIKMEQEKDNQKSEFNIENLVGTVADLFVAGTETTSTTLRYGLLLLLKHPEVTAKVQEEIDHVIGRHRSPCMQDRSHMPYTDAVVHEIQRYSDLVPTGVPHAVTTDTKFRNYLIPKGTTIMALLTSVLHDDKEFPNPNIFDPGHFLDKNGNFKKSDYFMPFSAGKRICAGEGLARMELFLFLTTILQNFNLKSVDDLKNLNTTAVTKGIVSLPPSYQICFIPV

[11] = molecular target: 2A6 (Homo sapiens, UniProt P11509); test: in vitro CYP450 inhibition; assay type: in vitro ADME
Sequence of 2A6 (P11509 whole entry): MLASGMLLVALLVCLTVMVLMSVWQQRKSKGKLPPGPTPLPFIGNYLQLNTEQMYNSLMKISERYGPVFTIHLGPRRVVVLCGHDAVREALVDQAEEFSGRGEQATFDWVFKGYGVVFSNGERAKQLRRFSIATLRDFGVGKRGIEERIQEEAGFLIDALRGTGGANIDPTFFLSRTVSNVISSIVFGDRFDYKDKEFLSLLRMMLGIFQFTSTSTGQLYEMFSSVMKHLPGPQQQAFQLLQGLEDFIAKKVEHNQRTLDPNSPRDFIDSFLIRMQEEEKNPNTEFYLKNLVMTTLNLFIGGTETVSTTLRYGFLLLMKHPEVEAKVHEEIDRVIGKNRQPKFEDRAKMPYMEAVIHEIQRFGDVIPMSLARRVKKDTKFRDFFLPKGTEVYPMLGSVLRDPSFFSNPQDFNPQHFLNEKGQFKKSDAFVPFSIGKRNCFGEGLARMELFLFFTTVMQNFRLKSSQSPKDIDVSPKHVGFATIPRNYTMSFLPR

[12] = oral PK study in CD-1 mice; assay type: in vivo
[13] = oral PK study in Sprague-Dawley rats; assay type: in vivo
[14] = molecular target: LXRα (Homo sapiens, UniProt Q13133); test: cell-based biosensor assay; conditions: read-out: median effective concentration (EC50) for LXRα
[15] = molecular target: CYP2E1 (Homo sapiens, UniProt P05181); test: in vitro CYP metabolism; assay type: in vitro ADME
Sequence of CYP2E1 (P05181 whole entry): as the sequence (P05181 whole entry) above

[16] = molecular target: 3A4 (Homo sapiens, UniProt P08684); test: in vitro CYP450 inhibition; assay type: in vitro ADME
[17] = molecular target: 2C9 (Homo sapiens, UniProt P11712); test: in vitro CYP450 inhibition; assay type: in vitro ADME
Sequence of 2C9 (P11712 whole entry): as the sequence (P11712 whole entry) above

[18] = tested on: cancer cells; test: cancer cell invasion in vitro; assay type: cell-based
[19] = oral PK study in Cynomolgus monkeys; assay type: in vivo; conditions: cynomolgus monkey, plasma
[20] = tested on: mouse melanoma; test: syngeneic mouse melanoma model; assay type: in vivo
[21] = pre-clinical toxicity studies; assay type: in vivo
[22] = molecular target: 2B6 (Homo sapiens, UniProt P20813); test: in vitro CYP450 inhibition; assay type: in vitro ADME
[23] = molecular target: 2C19 (Homo sapiens, UniProt P33261); test: in vitro CYP450 inhibition; assay type: in vitro ADME
[24] = molecular target: LXRβ (Homo sapiens, UniProt P55055); test: cell-based biosensor assay
Sequence of LXRβ (P55055 whole entry): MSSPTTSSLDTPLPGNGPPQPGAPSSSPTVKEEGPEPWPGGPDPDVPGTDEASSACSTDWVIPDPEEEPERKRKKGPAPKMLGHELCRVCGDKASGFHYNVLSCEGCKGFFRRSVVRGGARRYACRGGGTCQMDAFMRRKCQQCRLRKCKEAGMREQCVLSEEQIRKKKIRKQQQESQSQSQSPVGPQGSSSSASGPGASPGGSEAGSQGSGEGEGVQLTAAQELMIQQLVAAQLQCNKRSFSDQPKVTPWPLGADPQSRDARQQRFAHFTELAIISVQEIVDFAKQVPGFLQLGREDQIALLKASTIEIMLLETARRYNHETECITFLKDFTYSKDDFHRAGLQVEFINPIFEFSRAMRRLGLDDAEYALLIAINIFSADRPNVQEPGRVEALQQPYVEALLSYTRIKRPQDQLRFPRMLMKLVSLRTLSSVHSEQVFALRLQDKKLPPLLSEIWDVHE

[25] = tested on: melanoma, glioblastoma, TNBC, ovarian cancer, and lung cancer; test: syngeneic and human xenograft mouse tumor models, primary tumor growth; assay type: in vivo

`C[C@H](CCOc1cccc(CC(=O)O)c1)N(Cc1cccc(C(F)(F)F)c1Cl)CC(c1ccccc1)c1ccccc1` [2-[3-[(3R)-3-[[2-chloro-3-(trifluoromethyl)phenyl]methyl-(2,2-diphenylethyl)amino]butoxy]phenyl]acetic acid] showed a mean tumor volume ([1]; Group 03: 50 mg/kg, 0.9% saline, 0 mg/kg cisplatin, day 0) of 86.36, a mean tumor volume ([1]; Group 03: 50 mg/kg, 0.9% saline, 0 mg/kg cisplatin, day 3) of 98.82 and a mean tumor volume ([1]; Group 03: 50 mg/kg, 0.9% saline, 0 mg/kg cisplatin, day 6) of 125.97. It also gave a mean tumor volume ([1]; Group 03: 50 mg/kg, 0.9% saline, 0 mg/kg cisplatin, day 9) of 232.26, a mean tumor volume ([1]; Group 03: 50 mg/kg, 0.9% saline, 0 mg/kg cisplatin, day 12) of 354.70 and a mean tumor volume ([1]; Group 03: 50 mg/kg, 0.9% saline, 0 mg/kg cisplatin, day 15) of 507.62. The mean tumor volume ([1]; Group 03: 50 mg/kg, 0.9% saline, 0 mg/kg cisplatin, day 19) was 1053.57, the mean tumor volume ([1]; Group 03: 50 mg/kg, 0.9% saline, 0 mg/kg cisplatin, day 22) was 1151.02 and the mean tumor volume ([1]; Group 04: 50 mg/kg twice per day daily + 2 mg/kg cisplatin, day 0, in mm³ (unit assumed)) was 86.71. It also gave a mean tumor volume ([1]; Group 04: 50 mg/kg twice per day daily + 2 mg/kg cisplatin, day 3) of 94.50, a mean tumor volume ([1]; Group 04: 50 mg/kg twice per day daily + 2 mg/kg cisplatin, day 6) of 111.80 and a mean tumor volume ([1]; Group 04: 50 mg/kg twice per day daily + 2 mg/kg cisplatin, day 9, in mm³ (unit assumed)) of 214.76. The mean tumor volume ([1]; Group 04: 50 mg/kg twice per day daily + 2 mg/kg cisplatin, day 12, in mm³ (unit assumed)) was 315.64, the mean tumor volume ([1]; Group 04: 50 mg/kg twice per day daily + 2 mg/kg cisplatin, day 15, in mm³ (unit assumed)) was 315.55 and the mean tumor volume ([1]; Group 04: 50 mg/kg twice per day daily + 2 mg/kg cisplatin, day 19) was 748.19. The mean tumor volume ([1]; Group 04: 50 mg/kg twice per day daily + 2 mg/kg cisplatin, day 22) was 875.67, the mean tumor volume ([1]; Group 05: 50 mg/kg twice per day five days then two days without + 2 mg/kg cisplatin, day 0, in mm³ (unit assumed)) was 86.32 and the mean tumor volume ([1]; Group 05: 50 mg/kg twice per day five days then two days without + 2 mg/kg cisplatin, day 3) was 97.27. The mean tumor volume ([1]; Group 05: 50 mg/kg twice per day five days then two days without + 2 mg/kg cisplatin, day 6) was 129.15, the mean tumor volume ([1]; Group 05: 50 mg/kg twice per day five days then two days without + 2 mg/kg cisplatin, day 9, in mm³ (unit assumed)) was 212.99 and the mean tumor volume ([1]; Group 05: 50 mg/kg twice per day five days then two days without + 2 mg/kg cisplatin, day 12, in mm³ (unit assumed)) was 334.58. The mean tumor volume ([1]; Group 05: 50 mg/kg twice per day five days then two days without + 2 mg/kg cisplatin, day 15, in mm³ (unit assumed)) was 345.20, the mean tumor volume ([1]; Group 05: 50 mg/kg twice per day five days then two days without + 2 mg/kg cisplatin, day 19) was 680.16 and the mean tumor volume ([1]; Group 05: 50 mg/kg twice per day five days then two days without + 2 mg/kg cisplatin, day 22) was 830.27. For the same compound, the “inhibition of metastatic spread of cancer cells” value [2] was roughly 9 fold, the “inhibition of 2E1” value [3] was “very weakly inhibited” and the “reduction of MDSCs in circulation” value ([4]; in circulation) was roughly 40%. For the same compound, the “reduction of MDSCs in tumors” value ([4]; in tumors) was greater than 60%, the pIC50 [5] was 5.43 and the hERG channel conductance [6] was “significant increase, but not inhibition”. The CYP2B6 induction ([7]; 1 concentration in ⅓ donors) was greater than 2 fold, the “potential to induce CYP2B6” value ([7]; cryopreserved hepatocytes) was “cannot be ruled out” and the “substrate for CYP2C9” value [8] was “a substrate”. The “substrate for CYP2C19” value [9] was “a substrate”, the pIC50 [10] was 5.12 and the “inhibition of 2A6” value [11] was “very weakly inhibited”. For the same compound, the half-life ([12]; CD-1, mouse, plasma, po, mice, read-out: mean apparent oral half-life (t½)) was 390 to 480 min, the Tmax ([12]; both sexes, mouse, plasma, po, CD-1 mice, males and females, read-out: time to maximum plasma concentration (Tmax)) was 2 to 8 h and the “food effect: plasma concentrations higher in the fed state” value ([12]; mice, fed state) was greater than 2 fold. For the same compound, the bioavailability ([12]; mouse, plasma, CD-1 mice, oral, read-out: absolute oral bioavailability (% F)) was greater than 100%, the half-life ([13]; Sprague-Dawley, rat, plasma, po, female rats, read-out: mean apparent oral t½ (converted)) was 390 min and the “clearance, female versus male rats” value ([13]; all dose levels, higher systemic exposure in females) was “cleared at a lower rate in female rats compared to males”. The Tmax ([13]; both sexes, rat, plasma, po, Sprague-Dawley rats, males and females) was 4 to 8 h, the bioavailability ([13]; rat, plasma, Sprague-Dawley rats, 30 mg/kg oral dose, read-out: combined, mean % F) was roughly 31% and the pEC50 [14] was 6.47. For the same compound, the “substrate for CYP2E1” value [15] was “a substrate”, the “inhibition of 3A4” value [16] was “very weakly inhibited” and the “inhibition of 2C9” value [17] was “very weakly inhibited”. The “suppression of cancer cell invasion” value [18] was roughly 45%, the Tmax ([19]; oral dose) was 4 h and the bioavailability ([19]; po, depending on dose and formulation, read-out: mean % F) was 6 to 19%. The half-life ([19]; po, read-out: mean oral t½) was 330 to 480 min, the tumor growth ([20]; 50 mg/kg in combination with anti-PD1 therapy, tumors otherwise resistant to PD-1 inhibition) was “significant suppression of tumor growth” and the “inhibition of tumor growth” value ([20]; combination with anti-CTLA-4 antibody relative to either therapy alone) was “superior”. For the same compound, the tumor growth inhibition ([20]; in combination with an anti-PD-1 antibody, model otherwise not responsive to anti-PD-1 antibody) was greater than 80%, the anti-tumor efficacy ([20]; in combination with dacarbazine, compared to either treatment alone) was greater than 80% and the liver function [21] was “Liver function abnormalities have been observed”. For the same compound, the pIC50 [22] was 4.82, the “inhibition of 2C19” value [23] was “very weakly inhibited” and the “specificity for LXRβ than LXRα” value ([24]; from EC50 values) was “approximately 2.9 fold”. For the same compound, the pEC50 ([24]; read-out: median effective concentration (EC50) for LXRβ) was 6.93, the anti-tumor activity ([25]; animal models of glioblastoma, triple negative breast cancer (TNBC) and lung cancer) was “demonstrated” and the “inhibition of primary tumor growth” value ([25]; extent varied with model) was 48-95%.

Reference: US20220331274A1, “METHODS OF TREATING CANCER” (Inspirna, Inc., priority 2019, published 2022)
